In patent US10168342B2, “Lipid probes and uses thereof” (THE SCRIPPS RESEARCH INSTITUTE, priority 2015, dated 2019):

Tests used:
Assay in all cases: isoTOP-ABPP mapping of AEA-DA-modified peptides in Neuro2a cells
Type in all cases: cell-based
[1] = biological target: T1, AEA-DA-modified peptides in Neuro2a cells (Mus musculus, UniProt P84084); conditions: AEA-DA-modified peptide ARF5 P84084 39-60, SEQ ID NO 14; probe 100 μM, 12 replicates
T1 construct: endogenous in cells; host or cells: Neuro2a
T1 sequence (P84084 whole entry): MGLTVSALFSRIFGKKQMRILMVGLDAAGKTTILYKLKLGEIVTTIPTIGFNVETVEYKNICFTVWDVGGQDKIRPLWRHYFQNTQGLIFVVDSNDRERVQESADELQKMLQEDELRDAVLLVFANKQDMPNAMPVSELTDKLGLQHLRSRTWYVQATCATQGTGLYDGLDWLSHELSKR

[2] = biological target: T2, AEA-DA-modified peptides in Neuro2a cells (Mus musculus, UniProt P19157); conditions: AEA-DA-modified peptide GSTP1 P19157 104-117, SEQ ID NO 46; probe 100 μM, 12 replicates
T2 construct: endogenous in cells; host or cells: Neuro2a
T2 sequence (P19157 whole entry): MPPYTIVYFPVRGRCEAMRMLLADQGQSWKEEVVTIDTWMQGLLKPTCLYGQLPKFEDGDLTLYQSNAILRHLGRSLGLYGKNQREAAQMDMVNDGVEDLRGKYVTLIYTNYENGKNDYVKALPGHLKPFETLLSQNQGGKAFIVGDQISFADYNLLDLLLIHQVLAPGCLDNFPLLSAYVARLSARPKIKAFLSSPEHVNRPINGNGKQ

[3] = biological target: T3, AEA-DA-modified peptides in Neuro2a cells (Mus musculus, UniProt Q9DCZ4); conditions: AEA-DA-modified peptide APOO Q9DCZ4 187-197, SEQ ID NO 9; probe 100 μM, 12 replicates
T3 construct: endogenous in cells; host or cells: Neuro2a
T3 sequence (Q9DCZ4 24-198): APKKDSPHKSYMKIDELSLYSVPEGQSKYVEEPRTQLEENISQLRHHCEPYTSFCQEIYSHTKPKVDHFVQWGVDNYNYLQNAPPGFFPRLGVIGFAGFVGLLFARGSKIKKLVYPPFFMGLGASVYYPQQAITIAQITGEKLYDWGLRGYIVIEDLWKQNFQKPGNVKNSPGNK

[4] = biological target: T4, AEA-DA-modified peptides in Neuro2a cells (Mus musculus, UniProt P61759); conditions: AEA-DA-modified peptide VBP1 P61759 153-178, SEQ ID NO 119; probe 100 μM, 12 replicates
T4 construct: endogenous in cells; host or cells: Neuro2a
T4 sequence (P61759 whole entry): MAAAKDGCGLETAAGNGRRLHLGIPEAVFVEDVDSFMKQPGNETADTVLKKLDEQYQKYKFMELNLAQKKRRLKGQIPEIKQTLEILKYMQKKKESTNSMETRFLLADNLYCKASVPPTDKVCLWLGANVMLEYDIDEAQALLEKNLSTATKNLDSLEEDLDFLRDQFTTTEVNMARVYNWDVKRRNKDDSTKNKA

[5] = biological target: T5, AEA-DA-modified peptides in Neuro2a cells (Mus musculus, UniProt Q61335); conditions: AEA-DA-modified peptide BCAP31 Q61335 73-80, SEQ ID NO 21; probe 100 μM, 12 replicates
T5 construct: endogenous in cells; host or cells: Neuro2a
T5 sequence (Q61335 whole entry): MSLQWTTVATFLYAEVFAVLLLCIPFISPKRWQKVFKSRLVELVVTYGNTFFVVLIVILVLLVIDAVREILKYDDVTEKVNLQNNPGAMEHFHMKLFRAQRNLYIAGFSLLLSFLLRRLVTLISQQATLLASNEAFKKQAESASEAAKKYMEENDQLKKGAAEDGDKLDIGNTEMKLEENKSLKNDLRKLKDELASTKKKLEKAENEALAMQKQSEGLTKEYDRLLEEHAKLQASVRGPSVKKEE

[6] = biological target: T6, AEA-DA-modified peptides in Neuro2a cells (Mus musculus, UniProt P58281); conditions: AEA-DA-modified peptide OPA1 P58281 801-819, SEQ ID NO 74; probe 100 μM, 12 replicates
T6 construct: endogenous in cells; host or cells: Neuro2a
T6 sequence (P58281 88-960): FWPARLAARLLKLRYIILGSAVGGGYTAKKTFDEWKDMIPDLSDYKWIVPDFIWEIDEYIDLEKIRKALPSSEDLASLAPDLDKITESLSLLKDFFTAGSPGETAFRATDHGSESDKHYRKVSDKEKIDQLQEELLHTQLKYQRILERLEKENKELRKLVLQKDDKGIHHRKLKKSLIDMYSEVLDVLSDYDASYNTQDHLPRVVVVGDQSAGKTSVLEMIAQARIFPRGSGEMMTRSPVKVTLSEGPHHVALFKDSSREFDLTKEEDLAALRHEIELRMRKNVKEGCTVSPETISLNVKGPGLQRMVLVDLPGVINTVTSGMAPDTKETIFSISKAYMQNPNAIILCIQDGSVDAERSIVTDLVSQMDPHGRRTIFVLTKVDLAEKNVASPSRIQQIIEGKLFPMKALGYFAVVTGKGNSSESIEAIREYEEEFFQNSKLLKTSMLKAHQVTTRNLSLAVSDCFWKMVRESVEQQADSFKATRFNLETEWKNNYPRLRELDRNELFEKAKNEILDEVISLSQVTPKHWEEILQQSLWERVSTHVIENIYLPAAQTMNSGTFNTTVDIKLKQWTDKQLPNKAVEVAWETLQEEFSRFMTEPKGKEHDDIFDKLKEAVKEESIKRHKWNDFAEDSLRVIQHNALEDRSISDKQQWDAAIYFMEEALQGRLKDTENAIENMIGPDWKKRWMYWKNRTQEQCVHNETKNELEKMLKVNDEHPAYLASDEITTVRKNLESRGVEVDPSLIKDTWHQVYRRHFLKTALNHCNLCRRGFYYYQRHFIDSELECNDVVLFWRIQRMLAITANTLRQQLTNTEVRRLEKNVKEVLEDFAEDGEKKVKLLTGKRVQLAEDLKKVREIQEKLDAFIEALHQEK

[7] = biological target: T7, AEA-DA-modified peptides in Neuro2a cells (Mus musculus, UniProt Q9D379); conditions: AEA-DA-modified peptide EPHX1 Q9D379 296-329, SEQ ID NO 39; probe 100 μM, 12 replicates
T7 construct: endogenous in cells; host or cells: Neuro2a
T7 sequence (Q9D379 whole entry): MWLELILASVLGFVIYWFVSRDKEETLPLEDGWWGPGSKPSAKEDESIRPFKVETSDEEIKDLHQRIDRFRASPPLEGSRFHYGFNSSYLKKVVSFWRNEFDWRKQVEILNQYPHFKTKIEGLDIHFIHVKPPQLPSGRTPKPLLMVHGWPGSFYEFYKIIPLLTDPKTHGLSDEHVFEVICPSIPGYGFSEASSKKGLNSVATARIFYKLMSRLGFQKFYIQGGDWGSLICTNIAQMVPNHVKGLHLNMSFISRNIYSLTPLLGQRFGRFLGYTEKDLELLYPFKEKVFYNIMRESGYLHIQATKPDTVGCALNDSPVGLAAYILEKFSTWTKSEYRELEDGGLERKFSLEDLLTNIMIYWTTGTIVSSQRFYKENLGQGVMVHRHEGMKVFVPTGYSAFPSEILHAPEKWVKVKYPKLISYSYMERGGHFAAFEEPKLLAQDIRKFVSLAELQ

[8] = biological target: T8, AEA-DA-modified peptides in Neuro2a cells (Mus musculus, UniProt Q99JY4); conditions: AEA-DA-modified peptide TRABD Q99JY4 234-253, SEQ ID NO 116; probe 100 μM, 12 replicates
T8 construct: endogenous in cells; host or cells: Neuro2a
T8 sequence (Q99JY4 whole entry): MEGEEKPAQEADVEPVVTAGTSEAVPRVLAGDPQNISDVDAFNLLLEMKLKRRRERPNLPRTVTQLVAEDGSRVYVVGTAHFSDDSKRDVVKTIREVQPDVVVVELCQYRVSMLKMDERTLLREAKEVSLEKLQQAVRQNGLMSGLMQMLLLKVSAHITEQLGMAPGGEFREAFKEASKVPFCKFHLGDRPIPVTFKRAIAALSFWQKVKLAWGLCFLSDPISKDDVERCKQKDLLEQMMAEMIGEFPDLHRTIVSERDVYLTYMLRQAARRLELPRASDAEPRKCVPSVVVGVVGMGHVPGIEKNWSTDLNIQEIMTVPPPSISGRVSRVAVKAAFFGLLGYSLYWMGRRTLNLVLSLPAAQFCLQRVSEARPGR

[9] = biological target: T9, AEA-DA-modified peptides in Neuro2a cells (Mus musculus, UniProt Q9CZS1); conditions: AEA-DA-modified peptide ALDH1B1 Q9CZS1 119-147, SEQ ID NO 8; probe 100 μM, 12 replicates
T9 construct: endogenous in cells; host or cells: Neuro2a
T9 sequence (Q9CZS1 20-519): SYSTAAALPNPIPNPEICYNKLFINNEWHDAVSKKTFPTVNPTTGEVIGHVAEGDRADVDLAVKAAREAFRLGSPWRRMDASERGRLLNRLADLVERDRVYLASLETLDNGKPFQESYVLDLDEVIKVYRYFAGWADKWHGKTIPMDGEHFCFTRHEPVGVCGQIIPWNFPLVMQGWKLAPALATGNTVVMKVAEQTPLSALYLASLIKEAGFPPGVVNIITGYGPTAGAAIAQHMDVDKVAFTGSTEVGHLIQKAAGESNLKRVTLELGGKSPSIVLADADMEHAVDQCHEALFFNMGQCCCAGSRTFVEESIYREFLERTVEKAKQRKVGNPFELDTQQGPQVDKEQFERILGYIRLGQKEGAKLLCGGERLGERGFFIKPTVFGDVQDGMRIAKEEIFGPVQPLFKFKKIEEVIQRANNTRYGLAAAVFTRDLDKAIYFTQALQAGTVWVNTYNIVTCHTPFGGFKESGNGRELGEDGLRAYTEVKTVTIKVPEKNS

[10] = biological target: T10, AEA-DA-modified peptides in Neuro2a cells (Mus musculus, UniProt Q9D2R6); conditions: AEA-DA-modified peptide CCDC56 Q9D2R6 84-94, SEQ ID NO 22; probe 100 μM, 12 replicates
T10 construct: endogenous in cells; host or cells: Neuro2a
T10 sequence (Q9D2R6 whole entry): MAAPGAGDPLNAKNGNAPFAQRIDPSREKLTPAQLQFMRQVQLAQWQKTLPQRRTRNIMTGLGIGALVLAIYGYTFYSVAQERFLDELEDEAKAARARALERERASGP

[11] = biological target: T11, AEA-DA-modified peptides in Neuro2a cells (Mus musculus, UniProt P20029); conditions: probe 100 μM, 12 replicates
T11 construct: endogenous in cells; host or cells: Neuro2a
T11 sequence (P20029 20-655): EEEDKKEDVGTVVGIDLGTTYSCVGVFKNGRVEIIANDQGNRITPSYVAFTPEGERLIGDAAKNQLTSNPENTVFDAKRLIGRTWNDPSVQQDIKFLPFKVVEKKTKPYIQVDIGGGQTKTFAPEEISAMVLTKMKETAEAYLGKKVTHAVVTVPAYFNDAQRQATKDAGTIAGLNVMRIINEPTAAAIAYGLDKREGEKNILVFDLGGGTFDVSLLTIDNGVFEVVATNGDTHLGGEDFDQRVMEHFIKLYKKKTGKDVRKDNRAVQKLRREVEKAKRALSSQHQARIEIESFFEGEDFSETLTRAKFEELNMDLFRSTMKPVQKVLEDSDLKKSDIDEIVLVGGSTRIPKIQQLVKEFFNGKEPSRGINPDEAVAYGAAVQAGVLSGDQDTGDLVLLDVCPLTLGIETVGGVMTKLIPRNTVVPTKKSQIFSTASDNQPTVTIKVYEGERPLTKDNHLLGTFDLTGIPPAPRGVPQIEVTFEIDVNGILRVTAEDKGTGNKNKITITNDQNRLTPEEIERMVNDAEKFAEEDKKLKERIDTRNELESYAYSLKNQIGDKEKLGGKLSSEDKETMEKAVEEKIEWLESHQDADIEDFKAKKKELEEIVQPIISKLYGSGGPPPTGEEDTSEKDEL

[12] = biological target: T12, AEA-DA-modified peptides in Neuro2a cells (Mus musculus, UniProt Q9CQ45); conditions: AEA-DA-modified peptide NENF Q9CQ45 84-94, SEQ ID NO 68; probe 100 μM, 12 replicates
T12 construct: endogenous in cells; host or cells: Neuro2a
T12 sequence (Q9CQ45 31-171): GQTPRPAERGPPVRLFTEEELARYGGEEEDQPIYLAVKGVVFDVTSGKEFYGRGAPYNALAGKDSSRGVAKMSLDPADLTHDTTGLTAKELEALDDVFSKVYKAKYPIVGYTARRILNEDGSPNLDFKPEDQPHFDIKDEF

C#CCCCC1(CC/C=C\C/C=C\C/C=C\CCCC(=O)NCCO)N=N1 [AEA-DA, (5Z,8Z,11Z)-N-(2-hydroxyethyl)-14-(3-(pent-4-yn-1-yl)-3H-diazirin-3-yl)tetradeca-5,8,11-trienamide]
Times observed [1]: 9 | Times observed [2]: 4 | Times observed [3]: 2 | Times observed [4]: 2 | Times observed [5]: 2 | Times observed [6]: 2 | Times observed [7]: 8 | Times observed [8]: 4 | Times observed [9]: 4 | Times observed [10]: 2 | Times observed ([11]; AEA-DA-modified peptide HSPA5 P20029 466-476, SEQ ID NO 52): 8 | Times observed ([11]; AEA-DA-modified peptide HSPA5 P20029 635-656, SEQ ID NO 53): 4 | Times observed [12]: 4
